Test results as given in US20260232753A1, “COMPOSITION FOR TREATING MACULAR DEGENERATION COMPRISING NOVEL PEPTIDE” (EYEBIOKOREA, INC., priority 2021, published 2026).
Where no end group is shown, it is not given here. [ ]: non-standard residue; d: D form. Hyp = O=C(O)[C@@H]1C[C@@H](O)CN1

Tests used:
[1] = tested on: choroidal neovascularization (CNV); assay: Inhibition of choroidal neovascularization: optical coherence tomography, size of CNV lesion, intravitreal injection; format: in vivo, C57BL/6 mice; conditions: laser-induced CNV; 1 μL intravitreal, peptide 10 mg/mL or aflibercept 20 mg/mL; ten days after administration; OCT
Text: (§1) The CNV animal model used in the present invention is a mouse model in which lesions are induced by irradiating a laser to the choroid of C57BL/6 mice using a laser slit system. The laser-induced CNV model, first described in 1979, uses photocoagulation to disturb Bruch's membrane to induce the growth of choroidal neovascularization into the retina area, and it is similar in development to neovascular disease in the human retina, that is, wet macular degeneration (wet AMD), in that neovascularity arises from the choroid. In addition, the laser-induced CNV model was successful in predicting the clinical efficacy of anti-vascular endothelial growth factor (VEGF) treatment for neovascular AMD, and is an animal model used in the development stage of existing therapeutic agents (Gong Y, Li J, Sun Y, Fu Z, Liu C H, Evans L, et al. (2015) Optimization of an Image-Guided Laser-Induced Choroidal Neovascularization Model in Mice. PLOS ONE 10 (7)).
(§2) In order to evaluate the efficacy of the peptide of the present invention to inhibit the choroidal neovascularization (CNV), an experiment was performed as follows.
The eyes of 7-8 week old C57BL/6 mice were instilled with a mydriatic agent to dilate the pupils, and the mice were anesthetized by intraperitoneal injection of ketamine (50 mg/kg) and rompun (23.32 mg/kg). A slit-lamp laser injection system was used to irradiate the laser to the choroid of each eye of the mouse four times in the 12 o'clock, 3 o'clock, 6 o'clock, and 9 o'clock directions. At this time, the laser irradiation conditions were 532 nm, 80 msec, and 240 mW. Immediately after laser irradiation, 1 μL of each peptide at a concentration of 10 mg/mL or aflibercept at a concentration of 20 mg/mL, which was dissolved in PBS, was injected into the vitreous body using a syringe. Ten days after drug administration, the mice were anesthetized, and the CNV lesions induced by laser were calculated and expressed as μm^2 using the ImageJ program by transmitting an OCT beam for each burn. The results of all tests are expressed as mean±standard deviation, and significance was verified using one-way ANOVA and Kruskal-wallis test.

[2] = tested on: choroidal neovascularization (CNV); assay: Inhibition of choroidal neovascularization: electroretinography, b-wave amplitude as indicator of retinal function; format: in vivo, C57BL/6 mice; conditions: laser-induced CNV; 1 μL intravitreal, peptide 10 mg/mL or aflibercept 20 mg/mL; single white light 0.9 cd·sec/m^2
Text: as §1, §2
The eyes of 7-8 week old C57BL/6 mice were instilled with a mydriatic agent to dilate the pupils, and the mice were anesthetized by intraperitoneal injection of ketamine (50 mg/kg) and rompun (23.32 mg/kg). A slit-lamp laser injection system was used to irradiate the laser to the choroid of each eye of the mouse four times in the 12 o'clock, 3 o'clock, 6 o'clock, and 9 o'clock directions. At this time, the laser irradiation conditions were 532 nm, 80 msec, and 240 mW. Immediately after laser irradiation, 1 μL of each peptide at a concentration of 10 mg/mL or aflibercept at a concentration of 20 mg/mL, which was dissolved in PBS, was injected into the vitreous body using a syringe. For electroretinogram analysis, dark adaptation was performed for more than 12 hours. The mice were subjected to mydriasis in a dark room and anesthetized, and then electroretinography was performed by contacting the ground electrode to the tail, the reference electrode to the head, and the corneal electrode to the cornea. The response values were obtained by stimulating the retina with a single white light of 0.9 cd·sec/m^2 flash intensity, and the amplitude, which is determined from the trough of the a-wave to the peak of the b-wave, was measured and evaluated as an indicator of retinal function. The results of all tests are expressed as mean #standard deviation, and significance was verified using one-way ANOVA and Kruskal-wallis test.

[3] = tested on: choroidal neovascularization (CNV); assay: Inhibition of choroidal neovascularization: fluorescence value (CTF) at the CNV site by FFA, laser-induced CNV model, intravitreal injection; format: in vivo, C57BL/6 mice; conditions: laser-induced CNV; 1 μL intravitreal, peptide 10 mg/mL or aflibercept 20 mg/mL; ten days after administration; lower CTF = less CNV
Text: as §1, §2
The eyes of 7-8 week old C57BL/6 mice were instilled with a mydriatic agent to dilate the pupils, and the mice were anesthetized by intraperitoneal injection of ketamine (50 mg/kg) and rompun (23.32 mg/kg). A slit-lamp laser injection system was used to irradiate the laser to the choroid of each eye of the mouse four times in the 12 o'clock, 3 o'clock, 6 o'clock, and 9 o'clock directions. At this time, the laser irradiation conditions were 532 nm, 80 msec, and 240 mW. Immediately after laser irradiation, 1 μL of each peptide at a concentration of 10 mg/mL or aflibercept at a concentration of 20 mg/mL, which was dissolved in PBS, was injected into the vitreous body using a syringe. Ten days after drug administration, the mice were anesthetized, and 2% fluorescein was administered to the abdominal cavity to stain blood vessels. The retina was photographed 2 to 3 minutes after fluorescein administration. The size and fluorescence value of CNV lesions induced by laser were measured using the ImageJ program, and in order to reduce the differences between subjects, the CTF (corrected total fluorescence) was calculated by removing the background, and the values of each group were compared. The results of all tests are expressed as mean±standard deviation, and significance was verified using one-way ANOVA and Kruskal-wallis test.

neovascularity = assay: Eye drop efficacy to inhibit neovascularity in Vldlr knockout mice: lesion area by retinal fluorescence imaging; format: in vivo
Text: A symptom of neovascular macular degeneration is retinal angiomatous proliferation (RAP), which occurs in approximately 12 to 15% of patients who are newly diagnosed with neovascular macular degeneration. Meanwhile, Vldlr is known to be one of the functional candidate genes for human macular degeneration, and mice in which Vldlr is knocked out (−/−) show retinal hemangioma proliferation along with subretinal neovascularization. Therefore, in order to evaluate the neovascularity inhibitory efficacy of the eye drop comprising the peptide of Example 43 (002-175), which was confirmed to be an excellent peptide through the above test examples, in Vldlr knockout (−/−) mice, an animal model of neovascular macular degeneration disease, an experiment was performed as follows.
From 6 weeks of age (P42) to 14 weeks of age (P98), Vldlr^−/− mice were instilled with the eye drop comprising the peptide of Example 43 (002-175) twice a day, and as a positive control group, aflibercept at a concentration of 20 mg/mL was intraocularly injected once, 1 μL each, into the vitreous body of 6 week old mice. The eyes of the mice were instilled with a mydriatic agent to dilate the pupils, and then the mice were anesthetized by intraperitoneal injection of ketamine (50 mg/kg) and rompun (23.32 mg/kg), and 2% fluorescein was injected to the abdominal cavity to stain blood vessels. Images were acquired through retinal fluorescence imaging, and the lesion area was calculated using the ImageJ program, and the results of the experiment are shown in FIGS. 10 and 11.

[4] = Stability of the peptide: content analysis by HPLC in aqueous solution under harsh conditions; format: physicochemical
Method: In order to evaluate the stability of the peptide of the present invention, an experiment was performed as follows.
The stability of the peptide was confirmed through content analysis in an aqueous solution at 40° C., 75% humidity, and harsh conditions, and was analyzed using HPLC under the following conditions. • Analysis column: C18 (4.6 Y 250 mm, 5 μm, YMC Hydrosphere) • Analysis wavelength: ultraviolet absorption spectrophotometer (210 nm) • Injection volume/Flow rate: 10 μL/0.8 mL/min • Column temperature: 45° C. • Mobile phase: 0.1 M phosphate buffer methanol mixture (83:17)

Substance | Size of lesion [1] | b-wave amplitude [2] [μV] | CTF (corrected total fluorescence) value [3] | Size of the lesion (area of new blood vessels), course during administration (in words) (neovascularity; P42 to P98, for aflibercept from the 2nd week) | Size of the lesion (area of new blood vessels), 1 week after administration (in words) (neovascularity; P49) | Size of the lesion (area of new blood vessels), after 8 weeks (in words) (neovascularity; P98) | Content after 7 days ([4]; 40° C., 75% humidity, 7 days) [%] | Decrease rate ([4]; 40° C., 75% humidity, after 7 days) [%] | Initial content ([4]; HPLC, initial) [%]
Hyp-Gly-Gln-Glu-Val ([Hyp]GQEV) [Example 37] | 5,775 μm^2 | 400 | + (+: 300,000 to 800,000) |  |  |  |  |  | 
Hyp-Gly-Gln-Glu-Val-Leu-Ala ([Hyp]GQEVLA) [Example 42] | 6,102 μm^2 | 380 | + (+: 300,000 to 800,000) |  |  |  |  |  | 
aflibercept [reference compound] | 5,437 μm^2 | 398 | + (+: 300,000 to 800,000) | gradually increased again | reduced rapidly | reached a size similar to that of the group administered with vehicle |  |  | 
Hyp-Gly-Gln-Glu-Leu-Leu-Ala ([Hyp]GQELLA) [Example 41] | 4,960 μm^2 | 510 | + (+: 300,000 to 800,000) |  |  |  | 97.555 | 0.600 | 98.155
